Assay results reported in patent US10683293B2, “Optionally fused heterocyclyl-substituted derivatives of pyrimidine useful for the treatment of inflammatory, metabolic, oncologic and autoimmune diseases” (NUEVOLUTION A/S, priority 2014, dated 2020).

Columns and labels:
[1] = target: T1, human RORγt (Ligand Binding Domain) (Homo sapiens, UniProt P51449); assay: Fluorescence Polarization (FP) Assay; conditions: 100 nM human RORγt LBD, 25 nM TAMRA probe, values are activity range bounds
T1 construct: purchased Crelux (Planegg, Germany) batch no PC5032-1
T1 sequence (P51449 269-508 limits assumed): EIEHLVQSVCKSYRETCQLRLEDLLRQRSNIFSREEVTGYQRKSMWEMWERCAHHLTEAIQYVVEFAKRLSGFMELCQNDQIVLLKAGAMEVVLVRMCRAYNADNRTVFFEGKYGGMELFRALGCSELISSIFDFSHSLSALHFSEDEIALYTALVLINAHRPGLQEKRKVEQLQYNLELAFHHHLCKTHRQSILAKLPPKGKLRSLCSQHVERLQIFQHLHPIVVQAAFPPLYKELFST
How it was run: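 In vitro fluorescence polarization binding assay on the RORγt ligand-binding pocket. A TAMRA-labelled RORγt ligand probe (MW 910 g/mol) was used, with DMSO as negative control.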

[2] = target: T2, ligand binding domain of human RORγ (Homo sapiens, UniProt P51449); assay: RORγ Reporter Assay (Gal4); assay type: cell-based; conditions: for inhibition at 1 µM: HEK-293T, 1 μM test compound, HEK293t RORγ reporter cells, 24 hour, read-out: Gal4 activity range @ 1 μM (% inhibition); for Gal4 activity range @ 0.1 μM (% inhibition): RORγ Reporter Assay (Gal4), HEK293t reporter cells, compound at 0.1 μM, values are activity range bounds
T2 construct: host or cells: HEK293t
T2 sequence (P51449 269-508 limits assumed): T1 sequence (P51449 269-508 limits assumed)
Method: The activity of the compounds was evaluated using a Fluorescence Polarization (FP) Assay and, RORγ Reporter assay (also referred to as Gal4 assay). The FP assay is an in vitro assay monitoring binding within the ligand binding pocket. The RORγ and the Th17 assays (another suitable assay) are both cell-based assays monitoring functional activity of the compound assayed.
RORγ Reporter Assay (Gal4)
Cell-based RORγ functional assays were performed using a commercially available assay product (INDIGO Biosciences, State College, Pa., USA; product # IB04001). The RORγ reporter cells are HEK293t cells transfected with one vector that provides high level constitutive expression of a hybrid protein comprised of the yeast Gal4-DNA binding domain fused to the ligand binding domain of human RORγ, and a second vector comprising the firefly luciferase cDNA functionally linked to the upstream activation sequence (UAS) of yeast Gal4. A suspension of RORγ Reporter Cells was prepared using the protocol and culture medium provided in the kit product, and 100 μl of the Reporter Cell suspension was then dispensed into wells of a white, collagen-treated, 96-well assay plate. Concentrated stocks of test compounds were prepared in DMSO, then further diluted using media provided in the kit to generate ‘2×-concentration’ treatment media. 100 μl of medium for each respective treatment concentration dispensed into triplicate assay wells, thereby combining with the reporter cells. All media formulations contained 10% charcoal stripped Fetal Bovine Serum, but are otherwise proprietary to INDIGO Biosciences. Final treatment concentrations for each test compound were 1,000 nM and 100 nM, each with 0.1% residual DMSO. Separate control treatments were media supplemented with vehicle only (0.1% DMSO) to determine the constitutive level of RORγ activity in the reporter cells, and the reference inverse-agonist ursolic acid (f.c. 6,000 nM to 8.2 nM in 3-fold decrements) to establish a positive control inverse-agonist dose response. Assay plates were placed in a 37° C., 5% CO2, 85% humidity incubator for 24 hour. Treatment media were then discarded, 100 μl of luciferase detection reagent was added to each well, and relative light units (RLUs) were quantified from each assay well using a plate reading luminometer. Values of average RLU+/−standard deviation were computed for all treatment sets, followed by the calculations of fold-reduction: [Average RLUVehicle/Average RLUTest Cmpd]. Percent-reduction of RORγ activity in response to respective test compound treatments was calculated: [100*(1−[Ave RLUTest Cmpd/Ave RLUVehicle)] where the theoretical minimum reduction (0% reduction) derives from Vehicle treatment only, no treatment compound. In some aspects it may be of interest to provide compounds with selective modulation of RORγ for example compounds that are selective to RORγ over RORα, compounds that are selective for RORγ versus RORPβ, and compounds that are selective for RORγ versus BOTH RORα and RORPβ. It may also be of interest to provide compounds that are selective for RORγ versus further nuclear hormone receptors such as CAR1, FXR, GR, LXRα, LXRβ, PPARα, PXR, RARα, RXRα, TRα, VDR. It is apparent to those skilled in the art that these nuclear hormone receptors are merely examples, and that selectivity against other nuclear receptors may also be of interest. It may for example be of interest to provide compounds that modulate RORγ and one or more further nuclear hormone receptors, as well as compounds that modulate both RORγ and RORα, or RORγ and RORβ. It may also be of interest to provide compounds that modulate RORγ and BOTH RORα and RORP, as well as compounds that modulate both RORγ and one or more further nuclear hormone receptors such as CAR1, FXR, GR, LXRα, LXRβ, PPARα, PXR, RARα, RXRα, TRα, VDR. It is apparent to those skilled in the art that these nuclear hormone receptors are merely examples, and that modulation of even other nuclear receptors may also be of interest. […]

SMILES | IC50 [1] | inhibition at 1 µM [2] | Gal4 activity range @ 0.1 μM (% inhibition) [2]
O=C(O)CC1(CNc2ncnc(N(Cc3ccc(C(F)(F)F)cc3)C3CC3)c2F)CCOCC1 [Example A79, 2-[4-[[[6-[cyclopropyl-[[4-(trifluoromethyl)phenyl]methyl]amino]-5-fluoro-pyrimidin-4-yl]amino]methyl]tetrahydropyran-4-yl]acetic acid] | < 1000 nM | > 20% | 
N#Cc1ccc(CN(c2ncnc(NCc3ccc(CC(N)=O)cc3)c2F)C2CC2)cc1 [Example A64, 2-[4-[[[6-[(4-cyanophenyl)methyl-cyclopropyl-amino]-5-fluoro-pyrimidin-4-yl]amino]methyl]phenyl]acetamide] | < 500 nM | > 80% | >50 % inhibition
O=S(=O)(N[C@H]1CC[C@H](CNc2ncnc(N(Cc3ccc(C(F)(F)F)cc3)C3CC3)c2F)CC1)C(F)(F)F [Example A57, N-[4-[[[6-[cyclopropyl-[[4-(trifluoromethyl)phenyl]methyl]amino]-5-fluoro-pyrimidin-4-yl]amino]methyl]cyclohexyl]-1,1,1-trifluoro-methanesulfonamide] | < 500 nM | > 80% | >50 % inhibition
CN(C)CCNC(=O)CC1(CNc2ncnc(N(Cc3ccc(C(F)(F)F)cc3)C3CC3)c2F)CCOCC1 [Example A151, 2-[4-[[[6-[cyclopropyl-[[4-(trifluoromethyl)phenyl]methyl]amino]-5-fluoro-pyrimidin-4-yl]amino]methyl]tetrahydropyran-4-yl]-N-(2-dimethylaminoethyl)acetamide] | < 1000 nM | > 50% | >0 % inhibition
O=S(=O)(Nc1ccc(CNc2ncnc(N(Cc3ccc(C(F)(F)F)cc3)C3CC3)c2F)cc1)C(F)(F)F [Example A60, N-[4-[[[6-[cyclopropyl-[[4-(trifluoromethyl)phenyl]methyl]amino]-5-fluoro-pyrimidin-4-yl]amino]methyl]phenyl]-1,1,1-trifluoro-methanesulfonamide] | < 500 nM | > 80% | >0 % inhibition
C[S+]([O-])c1ccc(CNc2ncnc(N(Cc3ccc(C(F)(F)F)cc3)C3CC3)c2F)cc1 (stereo not shown) [Example A76, N4-cyclopropyl-5-fluoro-N6-[(4-methylsulfinylphenyl)methyl]-N4-[[4-(trifluoromethyl)phenyl]methyl] pyrimidine-4,6-diamine] | < 500 nM | > 80% | >80 % inhibition
NC(=O)Cc1ccc(CNc2ncnc(N(Cc3ccc(C(F)(F)F)nc3)C3CC3)c2F)cc1 [Example A83, 2-[4-[[[6-[cyclopropyl-[[6-(trifluoromethyl)-3-pyridyl]methyl]amino]-5-fluoro-pyrimidin-4-yl]amino]methyl]phenyl]acetamide] | < 500 nM | > 80% | >50 % inhibition
COc1ccc2cc(CN(C)c3ncnc(NCc4ccc(CC(N)=O)cc4)c3F)ccc2c1 [Example A120, 2-[4-[[[5-fluoro-6-[(6-methoxy-2-naphthyl)methyl-methyl-amino]pyrimidin-4-yl]amino]methyl]phenyl]acetamide] | < 500 nM | > 80% | >20 % inhibition
NC(=O)Cc1ccc(CNc2ncnc(N(Cc3ccc(C(F)(F)F)cc3)CC3CC3)c2F)cc1 [Example A18, 2-[4-[[[6-[cyclopropylmethyl-[[4-(trifluoromethyl)phenyl]methyl]amino]-5-fluoro-pyrimidin-4-yl]amino]methyl]phenyl]acetamide] | < 500 nM | > 80% | >50 % inhibition
NC(=O)Cc1ccc(CNc2ncnc3c2ccn3Cc2ccc(C(F)(F)F)cc2)cc1 [Example A164, 2-[4-[[[7-[[4-(trifluoromethyl)phenyl]methyl]pyrrolo[2,3-d]pyrimidin-4-yl]amino]methyl]phenyl]acetamide] | < 1000 nM | > 50% | >20 % inhibition

Continued, values first:

IC50 [1] | inhibition at 1 µM [2] | Gal4 activity range @ 0.1 μM (% inhibition) [2] | SMILES
< 500 nM | > 80% | >50 % inhibition | CCOc1ccc(CN(c2ncnc(NCc3ccc(CC(N)=O)cc3)c2F)C2CC2)cc1 [Example A54, 2-[4-[[[6-[cyclopropyl-[(4-ethoxyphenyl)methyl]amino]-5-fluoro-pyrimidin-4-yl]amino]methyl]phenyl]acetamide]
< 500 nM | > 80% | >50 % inhibition | CS(=O)(=O)N1CC2CCC(Nc3ncnc(N(Cc4ccc(C(F)(F)F)cc4)C4CC4)c3F)C2C1 (stereo not shown) [Example A175, N6-cyclopropyl-5-fluoro-N4-(2-methylsulfonyl-3,3a,4,5,6,6a-hexahydro-1H-cyclopenta[c]pyrrol-4-yl)-N6-[[4-(trifluoromethyl)phenyl]methyl] pyrimidine-4,6-diamine]
< 500 nM | > 80% | >20 % inhibition | NC(=O)Cc1ccc(CNc2ncnc(N(C3CC3)C(c3ccc(C(F)(F)F)cc3)C3CC3)c2F)cc1 (stereo not shown) [Example A13, 2-[4-[[[6-[cyclopropyl-[cyclopropyl-[4-(trifluoromethyl)phenyl]methyl]amino]-5-fluoro-pyrimidin-4-yl]amino]methyl]phenyl]acetamide]
< 500 nM | > 20% |  | CCCn1nc(C)cc1CN(C)c1ncnc(NCC2CCN(S(=O)(=O)C(F)F)CC2)c1F [Example A149, N6-[[1-(difluoromethylsulfonyl)-4-piperidyl]methyl]-5-fluoro-N4-methyl-N4-[(5-methyl-2-propyl-pyrazol-3-yl)methyl]pyrimidine-4,6-diamine]
< 500 nM | > 80% | >80 % inhibition | CS(=O)(=O)c1ccc(CNc2ncnc(N(Cc3ccc(C(F)(F)F)cc3)C3CC3)c2F)cn1 [Example A89, N6-cyclopropyl-5-fluoro-N4-[(6-methylsulfonyl-3-pyridyl)methyl]-N6-[[4-(trifluoromethyl)phenyl]methyl] pyrimidine-4,6-diamine]
< 500 nM | > 50% | >20 % inhibition | O=S(=O)(CC(F)(F)F)NC1CCC(CNc2ncnc(N(Cc3ccc(C(F)(F)F)cc3)C3CC3)c2F)CC1 (stereo not shown) [x, N-[4-[[[6-[cyclopropyl-[[4-(trifluoromethyl)phenyl]methyl]amino]-5-fluoro-pyrimidin-4-yl]amino]methyl]cyclohexyl]-2,2,2-trifluoro-ethanesulfonamide]
